From article PMC8301768, “Cloning and Characterization of Aedes aegypti Trypsin Modulating Oostatic Factor (TMOF) Gut Receptor” (Biomolecules, 2021)

Key:
[1] = test system: AeaABC-TMOF receptor; assay: Transport of AeaTMOF-FITC into E. coli cells expressing AeaABC-TMOF receptor in the presence of inhibitors; type: cell-based, Aedes aegypti; details: NaAzide 100 μM, NaArsenate 20 mM, AeaTMOF-FITC 0.4 μM, 2 h, 37 °C; for inhibition of transport of AeaTMOF-FITC into E. coli cells: 5 × 10^5 cells, M9 medium, versus control cells, mean of 3; for effect on transport of AeaTMOF-FITC into E. coli cells (in words): Valinomycin 7 μM, DNP 27 μM
Method: To find out whether the transport into E. coli cells expressing the TMOF receptor is proton driven or depends on ATP hydrolysis, E. coli cells (5 × 10^5 cell) expressing the TMOF receptor were incubated in M9 medium (100 μL) with valinomysin (7 μM), DNP (27 μM), NaAzide (100 μM) and NaArsenate (20 mM) in the presence of AeaTMOF-FITC (0.4 μM) for 2 h at 37 °C. Control was run without the inhibitors. After incubation, the cells were washed 3× by centrifugation and the fluorescence was read after subtraction the initial background fluorescence of the medium and inhibitors without the AeaTMOF-FITC. The incubations were repeated 3 independent times and the results are expressed as means of 3 determinations ±SEM.

[2] = test system: TMOF gut receptor; details: cited from earlier work
From the text: To characterize the TMOF gut receptor, complementary decapeptides were used on Ae. aegypti gut membranes showing that the binding to the gut membrane is pH and temperature dependent. […] The specific TMOF receptor binding sites on female mosquito gut increased after the blood meal and they were visualized by immunochemistry staining. […] Our earlier studies also characterized a low affinity receptor [25] whereas in this study the affinity chromatography and SDS PAGE procedure that we used aimed to purify a high affinity TMOF receptor. It is possible that a second low affi ...

[3] = test system: AeaABC-TMOF receptor; assay: Binding of TMOF-FITC to AeaABC-TMOF receptor expressed in E. coli SbmA− cells; design: species or system Aedes aegypti; details: for Kd: TMOF-FITC 0–0.4 μM, 8 × 10^8 E. coli SbmA− cells expressing receptor, M9 medium pH 7.2, 37 °C, fluorescence, corrected for nonspecific binding (13%), nonlinear regression, n = 5, ± SEM; for Bmax: as for KD, ± SEM; for affinity constant Kassoc: calculated from the binding kinetics
Method: Mid-log phase bacteria harboring TMOF-receptor were harvested, diluted and 0.5 μL (8 × 10^8 cells) were incubated in M9 medium (100 μL) pH 7.2 at 37 °C for 2 h in a shaker incubator in Eppendorf tubes with different concentrations of TMOF-FITC (0–0.4 μM) (specific activity = 25,396 fluorescence units/pmol) in the presence of TMOF (1 μmol) to reduce nonspecific binding of TMOF-FITC to the bacterial surface. After incubation, the cells were centrifuged at 14,000 rpm for 5 min at 4 °C, resuspended in PBS pH 7.2 (100 μL), vortexed, centrifuged, and the washing was repeated three times. After the last wash, the cells OD600nm and fluorescence were read in GloMax multidetector system using a blue filter (excitation at 490 nm and emission at 510–570 nm). The amount of TMOF-FITC that bound the TMOF-receptor was determined from a linear calibration curve after plotting different concentrations of TMOF-FITC against fluorescence units. […] After HPLC purification, the TFA ions were exchanged with phosphate ions. […] The results are expressed as pmol/OD600 so the binding to the receptor is per equal number of E. coli cells. The kinetics of TMOF-FITC binding to its receptor was followed at different concentrations of TMOF-FITC using 5 repetitions per concentration, the data was then fitted by nonlinear regression using GraphPad Prism and the KD, Bmax and the affinity constant Kassoc determined. The binding experiments were repeated 3 independent times.
Statistical analyses were determined using GraphPad Prism using two tailed Student’s t test and nonlinear regression. Results were considered significant when p < 0.05. […] Each experimental point is a mean of 3–5 determinations ± SEM.

[4] = test system: E. coli SbmA+ cells; assay: Binding of TMOF-FITC to E. coli SbmA+ cells with empty pTAC-MAT2 plasmid; details: 8 × 10^8 cells, 2 h, 37 °C, M9 medium, mean of three
Method: (§1) Mid-log phase bacteria harboring TMOF-receptor were harvested, diluted and 0.5 μL (8 × 10^8 cells) were incubated in M9 medium (100 μL) pH 7.2 at 37 °C for 2 h in a shaker incubator in Eppendorf tubes with different concentrations of TMOF-FITC (0–0.4 μM) (specific activity = 25,396 fluorescence units/pmol) in the presence of TMOF (1 μmol) to reduce nonspecific binding of TMOF-FITC to the bacterial surface. After incubation, the cells were centrifuged at 14,000 rpm for 5 min at 4 °C, resuspended in PBS pH 7.2 (100 μL), vortexed, centrifuged, and the washing was repeated three times. After the last wash, the cells OD600nm and fluorescence were read in GloMax multidetector system using a blue filter (excitation at 490 nm and emission at 510–570 nm). The amount of TMOF-FITC that bound the TMOF-receptor was determined from a linear calibration curve after plotting different concentrations of TMOF-FITC against fluorescence units. […] The results are expressed as pmol/OD600 so the binding to the receptor is per equal number of E. coli cells. The kinetics of TMOF-FITC binding to its receptor was followed at different concentrations of TMOF-FITC using 5 repetitions per concentration, the data was then fitted by nonlinear regression using GraphPad Prism and the KD, Bmax and the affinity constant Kassoc determined. […]

[5] = test system: AeaABC-TMOF receptor; assay: Fluorescence microscopy of TMOF-FITC import into E. coli cells expressing AeaABC-TMOF receptor; type: cell-based, Aedes aegypti; details: for fluorescence of cells / import (in words): overnight incubation, 10^8 cells expressing receptor, 37 °C, washed 3×
Method: Binding of TMOF-FITC to the AeaABC-TMOF receptor and its transport into the recombinant E. coli cells were observed using Leica DM6B microscope with Leica DFC 7000 T camera and 63× magnification using oil immersion lens. […] After incubation, the cells were washed 3× in PBS pH 7.2 (as in Section 2.6) and aliquots (10 μL) were spread on a glass slide then covered with a cover slip and a drop of oil was applied to the top of the cover slip, and the cells observed by fluorescence microscopy. Cells without a TMOF-receptor containing an empty plasmid were used as control.

[6] = test system: E. coli SbmA− cells; assay: Nonspecific binding of TMOF-FITC to E. coli SbmA− cells with empty pTAC-MAT-2 plasmid
Method: as §1

[7] = test system: E. coli SbmA− cells; assay: Fluorescence microscopy of E. coli cells with empty pTAC-MAT-2 plasmid incubated with TMOF-FITC; type: cell-based; details: overnight incubation, 10^8 cells with empty plasmid, 37 °C, washed 3×
Method: Binding of TMOF-FITC to the AeaABC-TMOF receptor and its transport into the recombinant E. coli cells were observed using Leica DM6B microscope with Leica DFC 7000 T camera and 63× magnification using oil immersion lens. Mid-log E. coli cells (10^8 cells) expressing AeaABC-TMOF-receptor were incubated with TMOF-FITC (see Section 2.6) in M9 medium (100 μL) overnight at 37 °C. After incubation, the cells were washed 3× in PBS pH 7.2 (as in Section 2.6) and aliquots (10 μL) were spread on a glass slide then covered with a cover slip and a drop of oil was applied to the top of the cover slip, and the cells observed by fluorescence microscopy. Cells without a TMOF-receptor containing an empty plasmid were used as control.

## [N-]=[N+]=[N-].[Na+] [NaAzide, sodium azide]
[1]
  inhibition of transport of AeaTMOF-FITC into E. coli cells: 43%
  effect on transport of AeaTMOF-FITC into E. coli cells (in words): inhibited

## O=[N+]([O-])c1ccc(O)c([N+](=O)[O-])c1 [DNP, 2,4-dinirophenol]
[1]
  effect on transport of AeaTMOF-FITC into E. coli cells (in words): did not stop the transport

## O=[As]([O-])([O-])O.[Na+].[Na+] [NaArsenate, sodium arsenate]
[1]
  inhibition of transport of AeaTMOF-FITC into E. coli cells: 58%
  effect on transport of AeaTMOF-FITC into E. coli cells (in words): inhibited

## YDPAPPPPPP [TMOF]
[2]; gut membrane preparations
  Bmax: 0.1 pmol/gut
  Kassoc: 2.2e+06 M⁻¹
[2]; low affinity binding site, gut membranes, complementary decapeptides, read-out: Kd2
  Kd: 4430 nM
[3]; 2 h
  Kd: 114 ± 18 nM
[3]
  Bmax: 28.7 ± 1.8 pmol
  affinity constant Kassoc: 8.8e+06 M⁻¹

## CC(C)[C@@H]1NC(=O)[C@H](C)OC(=O)[C@@H](C(C)C)NC(=O)[C@@H](C(C)C)OC(=O)[C@H](C(C)C)NC(=O)[C@H](C)OC(=O)[C@@H](C(C)C)NC(=O)[C@@H](C(C)C)OC(=O)[C@H](C(C)C)NC(=O)[C@H](C)OC(=O)[C@@H](C(C)C)NC(=O)[C@@H](C(C)C)OC1=O [Valinomycin]
[1]
  effect on transport of AeaTMOF-FITC into E. coli cells (in words): did not stop the transport

## H-YDPAPPPPPPK(FITC)K-OH [TMOF-FITC]
[4]
  AeaTMOF-FITC bound: 8.4 pmol
[5]
  fluorescence of cells / import (in words): imports it into the bacterial cells
[5]; listed as AeaTMOF-FITC
  fluorescence of cells / import (in words): highly fluoresce
[5]; short time incubation (2 h), cells expressing receptor
  fluorescence of cells (in words): did not fluoresce
[6]; E. coli SbmA− cells with empty pTAC-MAT-2 plasmid, not expressing the receptor (bacterial cell wall)
  nonspecific binding: 13%
[6]; E. coli SbmA− cells, 8 × 10^8 cells, 2 h, 37 °C, M9 medium, mean of three
  AeaTMOF-FITC bound: 4 pmol
[7]
  fluorescence of cells (in words): did not fluoresce
[7]; listed as AeaTMOF-FITC
  fluorescence of cells (in words): barely fluoresce
[3]; 2 h, 37 °C, M9 medium, versus E. coli SbmA+ with empty plasmid, p = 0.0034
  fold more TMOF-FITC bound by receptor-expressing cells than by E. coli SbmA+: 3.7 fold
[3]; 2 h, 37 °C, M9 medium, versus E. coli SbmA− with empty plasmid, p = 0.0018
  fold more TMOF-FITC bound by receptor-expressing cells than by E. coli SbmA−: 7.8 fold
[3]; 2 h
  Kd: 114 ± 18 nM
[3]; per equal number of E. coli cells, n = 5
  Bmax: 28.7 ± 1.8 pmol/OD600
[3]
  affinity constant Kassoc: 8.8e+06 M⁻¹
